How the values were obtained:
[1] = system: ABUTH = velvetleaf (Abutilon theophrasti); assay: General preemergence herbicidal activity, velvetleaf; format: in vivo; details: Abutilon theophrasti, pre-emergence, 480 h; pre-emergent, 140 g ai/ha, visual score after 20-22 days
Text: (§1) Seeds of the desired test plant species were planted in a soil matrix prepared by mixing a loam soil (43 percent silt, 19 percent clay, and 38 percent sand, with a pH of about 8.1 and an organic matter content of about 1.5 percent) and sand in a 70 to 30 ratio. The soil matrix was contained in plastic pots with a surface area of 113 square centimeters. When required to ensure good germination and healthy plants, a fungicide treatment and/or other chemical or physical treatment was applied. A weighed amount, determined by the highest rate to be tested, of each test compound was placed in a 25 mL glass vial and was dissolved in 6 mL of a 97:3 v/v (volume/volume) mixture of acetone and DMSO to obtain concentrated stock solutions. […] The stock solutions obtained were diluted with 18 mL of a 0.1% v/v aqueous solution of Tween® 20 surfactant to obtain spray solutions containing the highest application rate. Additional application rates were obtained by serial dilution of 12 mL of the high rate solution into a solution containing 3 mL of 97:3 v/v mixture of acetone and DMSO and 9 mL of the 0.1% v/v aqueous solution of Tween® 20 surfactant to obtain 1⁄2×, 1⁄4×, 1⁄8× and 1/16× rates of the high rate. Compound requirements are based upon a 12 mL application volume at a rate of 187 L/ha. Formulated compounds were applied to the plant material with an overhead Mandel track sprayer equipped with a […] nozzles calibrated to deliver 187 L/ha over an application area of 0.503 square meters at a spray height of 18 inches (43 cm) above the soil surface. Control plants were sprayed in the same manner with the solvent blank. The treated pots and control pots were placed in a greenhouse maintained with an approximate 15 hour photoperiod and temperatures of about 23-29° C. during the day and 22-28° C. during the night. Nutrients and water were added on a regular basis and supplemental lighting was provided with overhead metal halide 1000-Watt lamps as necessary. The water was added by top-irrigation. After 20-22 days, the condition of the test plants that germinated and grew as compared with that of the untreated plants that emerged and grew was determined visually and scored on a scale of 0 to 100 percent where 0 corresponds to no injury and 100 corresponds to complete kill or no emergence.

[2] = system: CHEAL = lambsquarter (Chenopodium album); assay: General postemergence herbicidal activity, lambsquarter; format: in vivo; details: Chenopodium album, post-emergence, 336 h; post-emergent, 140 g ai/ha, visual score after 14 days (0 no injury, 100 complete kill)
Method: (§2) Seeds or nutlets of the desired test plant species were planted in Sun Gro MetroMix® 306 planting mixture, which typically has a pH of 6.0 to 6.8 and an organic matter content of about 30 percent, in plastic pots with a surface area of 64 square centimeters. When required to ensure good germination and healthy plants, a fungicide treatment and/or other chemical or physical treatment was applied. The plants were grown for 7-21 days in a greenhouse with an approximate 15 hour photoperiod which was maintained at about 23-29° C. during the day and 22-28° C. during the night. Nutrients and water were added on a regular basis and supplemental lighting was provided with overhead metal halide 1000-Watt lamps as necessary. The plants were employed for testing when they reached the first or second true leaf stage.
(§3) A weighed amount, determined by the highest rate to be tested, of each test compound was placed in a 25 mL glass vial and was dissolved in 4 mL of a 97:3 v/v (volume/volume) mixture of acetone and dimethyl sulfoxide (DMSO) to obtain concentrated stock solutions. […] The concentrated stock solutions obtained were diluted with 20 mL of an aqueous mixture containing acetone, water, isopropyl alcohol, DMSO, Atplus 411F crop oil concentrate, and Triton X-155 surfactant in a 48.5:39:10:1.5:1.0:0.02 v/v ratio to obtain spray solutions containing the highest application rates. Additional application rates were obtained by serial dilution of 12 mL of the high rate solution into a solution containing 2 mL of 97:3 v/v (volume/volume) mixture of acetone and dimethyl sulfoxide (DMSO) and 10 mL of an aqueous mixture containing acetone, water, isopropyl alcohol, DMSO, Atplus 411F crop oil concentrate, and Triton X-155 surfactant in a 48.5:39:10:1.5:1.0:0.02 v/v ratio to obtain ½×, ¼×, ⅛× and 1/16× rates of the high rate. Compound requirements are based upon a 12 mL application volume at a rate of 187 L/ha. Formulated compounds were applied to the plant material with an overhead Mandel track sprayer equipped with a 8002E nozzles calibrated to deliver 187 L/ha over an application area of 0.503 square meters at a spray height of 18 inches (43 cm) above the average plant canopy height. Control plants were sprayed in the same manner with the solvent blank.
(§4) The treated plants and control plants were placed in a greenhouse as described above and watered by sub-irrigation to prevent wash-off of the test compounds. After 14 days, the condition of the test plants as compared with that of the untreated plants was determined visually and scored on a scale of 0 to 100 percent where 0 corresponds to no injury and 100 corresponds to complete kill.
(§5) By applying the well-accepted probit analysis as described by J. Berkson in Journal of the […], 48, 565 (1953) and by D. Finney in “Probit Analysis” Cambridge University Press (1952), the above data can be used to calculate GR50 and GR80 values, which are defined as growth reduction factors that correspond to the effective dose of herbicide required to kill or control 50 percent or 80 percent, respectively, of a target plant.

[3] = system: CHEAL = lambsquarter (Chenopodium album); assay: General preemergence herbicidal activity, lambsquarter; format: in vivo; details: Chenopodium album, pre-emergence, 480 h; pre-emergent, 140 g ai/ha, visual score after 20-22 days
Text: as §1

[4] = system: ABUTH = velvetleaf (Abutilon theophrasti); assay: General postemergence herbicidal activity, velvetleaf; format: in vivo; details: Abutilon theophrasti, post-emergence, 336 h; post-emergent, 140 g ai/ha, visual score after 14 days (0 no injury, 100 complete kill)
Method: as §2, §3, §4, §5

[5] = system: HELAN = sunflower (Helianthus annuus); assay: General preemergence herbicidal activity, sunflower; format: in vivo; details: Helianthus annuus, pre-emergence, 480 h; pre-emergent, 140 g ai/ha, visual score after 20-22 days
Text: as §1

[6] = system: HELAN = sunflower (Helainthus annuus); assay: General postemergence herbicidal activity, sunflower; format: in vivo; details: post-emergence, 336 h; post-emergent, 140 g ai/ha, visual score after 14 days (0 no injury, 100 complete kill)
Method: as §2, §3, §4, §5

`COC(=O)c1nc(-c2ccc(Cl)c(C)c2F)nc(N)c1Cl` [Compound 11, 6-Amino-5-chloro-2-(4-chloro-2-fluoro-3-methylphenyl)pyrimidine-4-carboxylic acid methyl ester] showed a pest or weed control at 140 g/ha [1] of 100%, a pest or weed control at 140 g/ha [2] of 95% and a pest or weed control at 140 g/ha [3] of 60%. It also gave a melting point of 166 to 168 °C, a pest or weed control at 140 g/ha [4] of 95% and a pest or weed control at 140 g/ha [5] of 100%. It also gave a pest or weed control at 140 g/ha [6] of 100%.
